Here are results for 13 compounds from patent US10130630B2, “BTK inhibitors” (MERCK SHARP & DOHME CORP., priority 2014, dated 2018).

For assay [1], the target named is T1, BTK enzyme (full-length BTK, hBTK) (Homo sapiens, UniProt Q06187).
T1 construct: recombinant protein from baculovirus-transfected Sf9 cells: full-length BTK, 6HIS-tag cleaved; 6HIS (cleaved yes); made in house; host or cells: baculovirus-transfected Sf9 cells
Kind of assay: Btk enzyme activity assay (LANCE TR-FRET). It is filed as biochemical. Particulars: 50 pM hBTK, 25 μM ATP, 60 minute compound and enzyme incubation, read-out: BTK binding IC50. As for the experimental part:
BTK enzymatic activity was determined with the LANCE (Lanthanide Chelate Excite) TR-FRET (Time-resolved fluorescence resonance energy transfer) assay. […] To each well of a black non-binding surface Corning 384-well microplate (Corning Catalog #3820), 5 nL of compound (2000 fold dilution in final assay volume of 10 μL) was dispensed, followed by the addition of 7.5 μL of 1× kinase buffer (50 mM Hepes 7.5, 10 mM MgCl2, 0.01% Brij-35, 1 mM EGTA, 0.05% BSA & 1 mM DTT) containing 5.09 pg/μL (66.67 pM) of BTK enzyme (recombinant protein from baculovirus-transfected Sf9 cells: full-length BTK, 6HIS-tag cleaved). Following a 60 minute compound and enzyme incubation, each reaction was initiated by the addition of 2.5 μL 1× kinase buffer containing 8 μM biotinylated “A5” peptide (Biotin-[…]-NH2) (SEQ.ID.NO.: 1), and 100 μM ATP. The final reaction in each well of 10 μL consists of 50 pM hBTK, 2 μM biotin-A5-peptide, and 25 μM ATP. Phosphorylation reactions were allowed to proceed for 120 minutes. Reactions were immediately quenched by the addition of 20 uL of 1× quench buffer (15 mM EDTA, 25 mM Hepes 7.3, and 0.1% Triton X-100) containing detection reagents (0.626 nM of LANCE-Eu-W1024-anti-phosphoTyrosine antibody, PerkinElmer and 86.8 nM of Streptavidin-conjugated Dylight 650, Dyomics/ThermoFisher Scientific). After 60 minutes incubation with detection reagents, reaction plates were read on a PerkinElmer EnVision plate reader using standard TR-FRET protocol. Briefly, excitation of donor molecules (Eu-chelate:anti-phospho-antibody) with a laser light source at 337 nm produces energy that can be transferred to Dylight-650 acceptor molecules if this donor:acceptor pair is within close proximity. Fluorescence intensity at both 665 nm (acceptor) and 615 nm (donor) are measured and a TR-FRET ratio calculated for each well (acceptor intensity/donor intensity). IC50 values were determined by 4 parameter robust fit of TR-FRET ratio values vs. (Log10) compound concentrations.
The following Table 2 provides specific IC50 values for all the examples. The IC50 values set forth below were determined according to Assay method described above.
On the technique in general: Time-resolved FRET reads energy transfer from a long-lived donor to a nearby acceptor.

In assay [2] the test system is adenosine uptake into HeLa cells. Kind of assay: [3H]Adenosine uptake assay in HeLa cells. It is filed as cell-based. Conditions: Homo sapiens, HeLa, 60 minutes uptake, read-out: ADU inhibition IC50 (adenosine uptake inhibition potency). As for the experimental part:
Compounds were also screened in an adenosine uptake functional cellular assay using the protocol described below.
Adenosine uptake activity was determined by monitoring the accumulation of tritiated adenosine into HeLa cells (ATCC catalog # CCL-2) using a PMT-based radiometric detection instrument. In this assay, the potency (IC50) of each compound was determined from a ten point (1:3 serial dilution; final compound concentration range in assay from 10 μM to 0.032 nM) titration curve using the following outlined procedure. To each well of a 96-well CytoStar-T scintillating microplate (Perkin Elmer Catalog # RPNQ0163), 25 000 HeLa cells in 100 μL of growth medium comprising: Minimum Essential Media (Life Technologies Catalog # 11095-080)+10% (v/v) foetal bovine serum (FBS; Sigma Aldrich Catalog # F2442) was added. These cells were incubated overnight at 37° C. in a humidified atmosphere with 5% (v/v) CO2. After this time the growth medium was removed and replaced with 40 μL assay medium comprising: Hanks balanced salts solution (HBSS; Thermo Fisher Catalog # SH30268.01)+5% (v/v) FBS. Compound stock solutions in DMSO were diluted in assay medium to 2.5× final compound concentration maintaining a constant DMSO concentration of 0.25% (v/v). 40 μL of compound in assay medium was dispensed into individual wells of the Cytostar-T plates and the plates were incubated for 30 minutes under ambient laboratory conditions. Following this incubation, 20 μL of 500 nM [^3H]adenosine (American Radiolabeled Chemicals Inc. Catalog # ART0287) in assay medium was added and incubated for a further 60 minutes under ambient laboratory conditions. The amount of radiolabel accumulation was then determined using a Perkin Elmer Topcount NXT microplate reader. In brief, HeLa cells adhere to the bottom of the Cytostar-T plate, uptake of [^3H]adenosine into these cells brings the radiolabel into sufficient proximity to excite the scintillant in the base of the plates. These events are captured by single PMT, time-resolved coincidence counting. IC50 values were determined by 4 parameter robust fit of counts per second values vs. (Log10) compound concentrations.

T1 sequence (Q06187 whole entry): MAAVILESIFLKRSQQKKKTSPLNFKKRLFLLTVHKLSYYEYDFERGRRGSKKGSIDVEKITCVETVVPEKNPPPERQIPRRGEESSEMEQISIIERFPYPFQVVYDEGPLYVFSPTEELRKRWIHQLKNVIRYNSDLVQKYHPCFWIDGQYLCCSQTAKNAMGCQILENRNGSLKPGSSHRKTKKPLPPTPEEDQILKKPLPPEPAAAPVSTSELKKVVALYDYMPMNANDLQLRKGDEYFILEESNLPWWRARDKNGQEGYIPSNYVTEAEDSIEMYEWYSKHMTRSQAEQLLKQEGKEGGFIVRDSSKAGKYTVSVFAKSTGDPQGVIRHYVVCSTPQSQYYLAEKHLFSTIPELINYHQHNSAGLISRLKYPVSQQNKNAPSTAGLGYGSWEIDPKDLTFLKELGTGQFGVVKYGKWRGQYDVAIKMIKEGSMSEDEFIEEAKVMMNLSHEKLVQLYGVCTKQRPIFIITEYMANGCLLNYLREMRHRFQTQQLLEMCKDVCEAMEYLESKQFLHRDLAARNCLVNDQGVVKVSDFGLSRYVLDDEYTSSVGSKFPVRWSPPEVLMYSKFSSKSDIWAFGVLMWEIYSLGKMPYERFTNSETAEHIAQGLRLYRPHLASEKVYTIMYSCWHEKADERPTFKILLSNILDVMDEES

For the compound `Nc1nccn2c([C@@H]3CC[C@H]4[C@@H](O)C5(CC5)C(=O)N4C3)nc(-c3ccc(C(=O)Nc4cc(C(F)(F)F)ccn4)cc3)c12` [Compound 10, 4-{8-amino-3-[(1′S,6′R,8a′S)-1′-hydroxy-3′-oxohexahydrospiro[cyclopropane-1,2′-indolizin]-6′-yl]imidazo[1,5-a]pyrazin-1-yl}-N-[4-(trifluoromethyl)pyridin-2-yl]benzamide], the half-inhibitory concentration (IC50) in assay [1] was 0.952 nM; in assay [2], 861 nM.
In the same order, the values of `CCOc1cc(C(=O)Nc2cc(C(F)(F)F)ccn2)ccc1-c1nc([C@@H]2CC[C@H]3[C@@H](O)C4(CC4)C(=O)N3C2)n2ccnc(N)c12` [Compound 11, 4-{8-amino-3-[(1′S,6′R,8a′S)-1′-hydroxy-3′-oxohexahydrospiro[cyclopropane-1,2′-indolizin]-6′-yl]imidazo[1,5-a]pyrazin-1-yl}-3-ethoxy-N-[4-(trifluoromethyl)pyridin-2-yl]benzamide] are 0.701 nM and 1990 nM.
On to `CCOc1cc(C(=O)Nc2cc(C(F)(F)F)ccn2)ccc1-c1nc([C@@H]2CC[C@@H]3N(C2)C(=O)C2(CC2)C3(F)F)n2ccnc(N)c12` [Compound 27, 4-{8-amino-3-[(6′R,8a′S)-1′,1′-difluoro-3′-oxohexahydrospiro[cyclopropane-1,2′-indolizin]-6′-yl]imidazo[1,5-a]pyrazin-1-yl}-3-ethoxy-N-[4-(trifluoromethyl)pyridin-2-yl]benzamide], for which the IC50 amounted to 1.6 nM in assay [1] and 1140 nM in assay [2].
For the compound `CCOc1cc(C(=O)Nc2cc(C(F)(F)F)ccn2)ccc1-c1nc(C2CCC3N(C2)C(=O)CNC32CC2)n2ccnc(N)c12` (centres unmarked) [Compound 39, 4-[8-amino-3-(4′-oxohexahydro-2′H,6′H-spiro[cyclopropane-1,1′-pyrido[1,2-a]pyrazin]-7′-yl)imidazol[1,5-a]pyrazin-1-yl]-3-ethoxy-N-[4-(trifluoromethyl)pyridin-2-yl]benzamide], the results for the IC50 in assay [1] and in assay [2] were 0.322 nM and 1350 nM, respectively.
Regarding `CCOc1cc(C(=O)Nc2cc(C(F)(F)F)n(C)n2)c(Cl)cc1-c1nc([C@@H]2CC[C@@H]3N(C2)C(=O)C2(CC2)C3(F)F)n2ccnc(N)c12` [Compound 34, 4-{8-amino-3-[(6′R,8a′S)-1′,1′-difluoro-3′-oxohexahydrospiro[cyclopropane-1,2′-indolizin]-6′-yl]imidazo[1,5-a]pyrazin-1-yl}-2-chloro-5-ethoxy-N-[1-methyl-5-(trifluoromethyl)-1H-pyrazol-3-yl]benzamide], the results for the IC50 in assay [1] and in assay [2] were 6.95 nM and 1580 nM, respectively.
Regarding `CCOc1cc(C(=O)Nc2cc(C(F)(F)F)ccn2)cc(F)c1-c1nc([C@@H]2CC[C@@H]3N(C2)C(=O)CC32CC2)n2ccnc(N)c12` [Compound 20, 4-{8-amino-3-[(6′R,8a′S)-3′-oxohexahydro-5′H-spiro[cyclopropane-1,1′-indolizin]-6′-yl]imidazo[1,5-a]pyrazin-1-yl}-3-ethoxy-5-fluoro-N-[4-(trifluoromethyl)pyridin-2-yl]benzamide], the figures for the IC50 in assay [1] and in assay [2] were 0.171 nM and 871 nM, respectively.
Regarding `Cc1ccnc(NC(=O)c2ccc(-c3nc([C@@H]4CC[C@H]5C(=O)C6(CC6)C(=O)N5C4)n4ccnc(N)c34)cc2)c1` [Compound 8, 4-{8-amino-3-[(6′R,8a′S)-1′,3′-dioxohexahydrospiro[cyclopropane-1,2′-indolizin]-6′-yl]imidazo[1,5-a]pyrazin-1-yl}-N-(4-methylpyridin-2-yl)benzamide], the results for the IC50 in assay [1] and in assay [2] were 2.07 nM and 50.9 nM, respectively.
Take `CCOc1cc(C(=O)Nc2cc(C(F)(F)F)ccn2)ccc1-c1nc([C@H]2CN3C(=O)C4(CC4)NC[C@@H]3CO2)n2ccnc(N)c12` [Compound 45, 4-{8-amino-3-[(3′R,9a′R)-6′-oxohexahydrospiro[cyclopropane-1,7′-pyrazino[2,1-c][1,4]oxazin]-3′-yl]imidazo[1,5-a]pyrazin-1-yl}-3-ethoxy-N-[4-(trifluoromethyl)pyridin-2-yl]benzamide]: the results for the IC50 in assay [1] and in assay [2] were 0.241 nM and 1580 nM, respectively.
Turning to `CCOc1cc(C(=O)Nc2cc(C(F)(F)F)ccn2)ccc1-c1nc([C@@H]2CC[C@H]3CN4CCC[C@H]4C(=O)N3C2)n2ccnc(N)c12` [Compound 16, 4-{8-amino-3-[(5aS,8R,11aS)-11-oxodecahydro-1H-pyrido[1,2-a]pyrrolo[1,2-d]pyrazin-8-yl]imidazo[1,5-a]pyrazin-1-yl}-3-ethoxy-N-[4-(trifluoromethyl)pyridin-2-yl]benzamide], the IC50 in assay [1] was determined as 0.489 nM; in assay [2] it was 1670 nM.
On the same counts, the results for `CCOc1cc(C(=O)Nc2cc(C(F)(F)F)ccn2)cc(F)c1-c1nc([C@@H]2CC[C@@H]3N(C2)C(=O)C2(CC2)C3(F)F)n2ccnc(N)c12` [Compound 28, 4-{8-amino-3-[(6′R,8a′S)-1′,1′-difluoro-3′-oxohexahydrospiro[cyclopropane-1,2′-indolizin]-6′-yl]imidazo[1,5-a]pyrazin-1-yl}-3-ethoxy-5-fluoro-N-[4-(trifluoromethyl)pyridin-2-yl]benzamide] are 1.54 nM and 1950 nM.
As to `CCOc1cc(C(=O)Nc2cc(C(F)(F)F)n(C)n2)c(F)cc1-c1nc([C@@H]2CC[C@@H]3N(C2)C(=O)C2(CC2)C3(F)F)n2ccnc(N)c12` [Compound 33, 4-{8-amino-3-[(6′R,8a′S)-1′,1′-difluoro-3′-oxohexahydrospiro[cyclopropane-1,2′-indolizin]-6′-yl]imidazo[1,5-a]pyrazin-1-yl}-5-ethoxy-2-fluoro-N-[1-methyl-5-(trifluoromethyl)-1H-pyrazol-3-yl]benzamide], the half-maximal inhibitory concentration (IC50) is 9.04 nM in assay [1] and 1440 nM in assay [2].
For `Nc1nccn2c([C@@H]3CC[C@H]4[C@@H](O)C5(CC5)C(=O)N4C3)nc(-c3ccc(C(=O)Nc4cc(C(F)(F)F)ccn4)cc3F)c12` [Compound 12, 4-(8-amino-3-((1′S,6′R,8a′S)-1′-hydroxy-3′-oxohexahydro-1′H-spiro[cyclopropane-1,2′-indolizin]-6′-yl)imidazo[1,5-a]pyrazin-1-yl)-3-fluoro-N-(4-(trifluoromethyl)pyridin-2-yl)benzamide], the values for the IC50 in assay [1] and in assay [2] were 0.385 nM and 963 nM, respectively.
For `CCOc1cc(C(=O)Nc2cc(C(F)(F)F)ccn2)ccc1-c1nc([C@@H]2CC[C@H]3CN(CC)C4(CC4)C(=O)N3C2)n2ccnc(N)c12` [Compound 44, 4-{8-amino-3-[(7′R,9a′S)-2′-ethyl-4′-oxohexahydro-2′H-spiro[cyclopropane-1,3′-pyrido[1,2-a]pyrazin]-7′-yl]imidazo[1,5-a]pyrazin-1-yl}-3-ethoxy-N-[4-(trifluoromethyl)pyridin-2-yl]benzamide], the IC50 in assay [1] turned out to be 0.249 nM; in assay [2], 785 nM.

For orientation: IC50 means the concentration that inhibits the measured activity by half.
